# Measurements: patent US20170312300A1, “Methods for Treating Cancer” (Fundacion Centro National de Investigaciones Oncolgicas …, priority 2014, published 2017)
# Assays:
# [1] = biological target: T1, kynurenine 3-monooxygenase (KMO) (Mus musculus, UniProt Q91WN4); assay: Ro-61-8048 treatment of C57BL/6 mice previously fed DDC diet (liver NAD+ and DNA damage); type: in vivo; details: 25 mg/Kg intraperitoneally for 3 consecutive days after 4 days DDC diet, vs DMSO
# T1 construct: supplying C57BL/6 mice for 4 days with a DDC-supplemented diet; from tissue; host or cells: liver of living C57BL/6 mice (in vivo dosing)
# Procedure: Freshly harvested murine livers were fixed immediately in 10% buffered formalin solution overnight and embedded in paraffin. Sections of 3 μm were deparafinized, rehydrated and antigen retrieved by using 1M sodium citrate buffer (pH 6.5). After blocking endogenous peroxidase using 3% H2O2 (in methanol) for 5 min, sections were then blocked with 1:200 goat serum 5% BSA/PBST for 1 h at RT. Furthermore, sections were incubated with primary antibodies overnight at 4° C., after which Vectastain ABC kit (Vector Laboratories, Inc) was used, following manufacturer's instructions. Sections were then incubated with 33-diaminobenzidinetetracloride (DBA) and counterstained with hematoxylin. In the case of immunofluorescence, sections were incubated with PE-conjugated secondary antibodies (1:500) for 1 h at RT, followed by DAPI staining. Quantification was performed either by counting the number of positive cells in a minimum of six 10× or 20× microscopic fields, or the percentage of positive area using Color Deconvolution plug-in in Image J.
# NAD+ levels were determined using a commercial kit (Enzychrom, BioAssays Systems, CA), and as previously described (Canto et al., 2012, Cell Metab 15, 838-847). NAD+/NADH assay kit is based on a […] cycling reaction, in which the formed NADH reduces a formazan (MTT) reagent. […]
# hepatocarcinogenesis = details: cited from earlier work
# [2] = system: model of hepatic carcinogenesis; details: cited from earlier work
# advanced HCC = details: patients with advanced HCC; cited from earlier work
# T1 sequence (Q91WN4 whole entry): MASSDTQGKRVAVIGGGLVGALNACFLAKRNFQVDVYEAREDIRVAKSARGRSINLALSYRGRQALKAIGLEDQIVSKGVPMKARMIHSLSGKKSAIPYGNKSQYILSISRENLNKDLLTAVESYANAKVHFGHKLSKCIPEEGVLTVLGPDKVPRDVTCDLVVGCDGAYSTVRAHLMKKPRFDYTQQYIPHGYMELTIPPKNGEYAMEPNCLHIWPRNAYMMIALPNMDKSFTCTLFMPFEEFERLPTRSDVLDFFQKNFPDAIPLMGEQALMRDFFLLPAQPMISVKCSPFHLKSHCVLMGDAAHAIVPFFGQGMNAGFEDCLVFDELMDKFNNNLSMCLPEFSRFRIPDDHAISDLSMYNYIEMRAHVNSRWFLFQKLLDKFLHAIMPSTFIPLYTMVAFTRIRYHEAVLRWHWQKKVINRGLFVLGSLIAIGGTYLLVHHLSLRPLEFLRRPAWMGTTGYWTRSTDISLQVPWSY
structure (smiles),measurement,setting,value
COc1ccc(S(=O)(=O)Nc2nc(-c3cccc([N+](=O)[O-])c3)cs2)cc1OC [Ro-61-8048],DNA damage foci (γH2AX) in livers,[1],significantly elevated
same,NAD+ concentrations in livers,[1],reduced
NC(=O)c1cccnc1 [nicotinamide],hepatocarcinogenesis,hepatocarcinogenesis; both in vitro and in vivo,effectively inhibits
same,formation of loci and adenomas,hepatocarcinogenesis; in vivo,lower formation
same,"number of foci, their diameter or proportion of liver occupied by loci",[2],no effect
CNC(=O)c1cc(Oc2ccc(NC(=O)Nc3ccc(Cl)c(C(F)(F)F)c3)cc2)ccn1 [sorafenib],prolongation of survival compared to placebo,advanced HCC,around 2 months
